Source: US4302461A, “Antiinflammatory 5-substituted-2,3-diarylthiophenes” (E. I. Du Pont de Nemours and Company, priority 1980, dated 1981)
Like-named read-outs stand apart in the source and are kept apart here.

Test system: Established Adjuvant-Induced Arthritis in Rats
Test: Established Adjuvant-Induced Arthritis in Rats (uninjected left hind paw volume)
Assay type: in vivo, Lewis (Wistar) male rats
Conditions: for ED50: 168 h, read-out: ED50 % Decrease From Control Paw Volume; for inhibition in vivo at 27 mg/kg: Daily Oral Dose 27 mg/kg; for inhibition in vivo at 20 mg/kg: Daily Oral Dose 20 mg/kg
[1] = Rattus norvegicus, oral gavage once daily for 7 days (days 14-20), estimated by inspection of dose-response regression lines
[2] = Rattus norvegicus, 504 h, once daily for 7 days (days 14-20), paw volume on day 21, read-out: Percent Decrease from Control Paw Volume

| Structure (SMILES) | ED50 [1] [mg/kg] | inhibition in vivo at 27 mg/kg [2] [%] | other results |
| --- | --- | --- | --- |
| CC(=O)Oc1ccccc1C(=O)O [Aspirin, reference compound] | – | – | ED50 (Rattus norvegicus, po): 270 mg/kg |
| Fc1ccc(-c2cc(SC(F)(F)F)sc2-c2ccc(F)cc2)cc1 [Example 1, 2,3-bis(4-Fluorophenyl)-5-(trifluoromethylthio)thiophene] | 3.5 | – | – |
| O=S(=O)(c1cc(-c2ccc(F)cc2)c(-c2ccc(F)cc2)s1)C(F)(F)F [Example 2, 2,3-bis(4-Fluorophenyl)-5-(trifluoromethylsulfonyl)thiophene] | 10 | – | – |
| COc1ccc(-c2cc(SC)sc2-c2ccc(OC)cc2)cc1 [Example 3, 2,3-bis(4-Methoxyphenyl)-5-(methylthio)thiophene] | – | 43 | – |
| COc1ccc(-c2cc(SC(F)(F)C(F)F)sc2-c2ccc(OC)cc2)cc1 [Example 4, 2,3-bis(4-Methoxyphenyl)-5-(1,1,2,2-tetrafluoroethylthio)thiophene] | – | 11 | antiinflammatory activity (statistical significance) (at the dose level tested): did not exhibit statistically significant antiinflammatory activity |
| FC(F)(F)Sc1cc(-c2ccccc2)c(-c2ccccc2)s1 [Example 5] | – | – | inhibition in vivo at 20 mg/kg [2]: 33% |
| COc1ccc(-c2cc(SC(F)(F)F)sc2-c2ccc(OC)cc2)cc1 [Example 6] | – | – | inhibition in vivo at 20 mg/kg [2]: 32% |
| Fc1ccc(-c2sc(SC(F)(F)F)cc2-c2ccc(Cl)cc2)cc1 [Example 7] | 4 | – | – |
| CSc1cc(-c2ccc(F)cc2)c(-c2ccc(F)cc2)s1 [Example 8] | – | 25 | – |
| Fc1ccc(-c2cc(SC(F)(F)F)sc2-c2ccc(Cl)cc2)cc1 [Example 9] | 10 | – | – |
| Fc1ccc(-c2cc(SC(F)(F)C(F)F)sc2-c2ccc(F)cc2)cc1 [Example 10] | – | 28 | – |
| COc1ccc(-c2cc(S(=O)(=O)C(F)(F)C(F)F)sc2-c2ccc(OC)cc2)cc1 [Example 11] | – | 23 | – |
| O=S(=O)(c1cc(-c2ccc(F)cc2)c(-c2ccc(F)cc2)s1)C(F)(F)C(F)F [Example 12] | – | 34 | – |
| CCCCCCSc1cc(-c2ccc(OC)cc2)c(-c2ccc(OC)cc2)s1 [Example 20] | – | – | inhibition in vivo at 81 mg/kg (Rattus norvegicus, 504 h, Daily Oral Dose 81 mg/kg, once daily for 7 days (days 14-20), paw volume on day 21, read-out: Percent Decrease from Control Paw Volume): 39% |
| COc1ccc(-c2cc(SC(F)(F)F)sc2-c2ccc(S(C)(=O)=O)cc2)cc1 [Example 21] | 9 | – | – |
| CSc1ccc(-c2sc(SC(F)(F)F)cc2-c2ccc(F)cc2)cc1 [Example 22] | 0.4 | – | – |
| CSc1ccc(-c2cc(SC(F)(F)F)sc2-c2ccc(F)cc2)cc1 [Example 24] | 0.15 | – | – |
| COc1ccc2c(c1)c(CC(=O)O)c(C)n2C(=O)c1ccc(Cl)cc1 [Indomethacin, reference compound] | – | – | ED50 (Rattus norvegicus, po): 0.25 mg/kg |
| CCCCC1C(=O)N(c2ccccc2)N(c2ccccc2)C1=O [Phenylbutazone, reference compound] | 10 | – | – |
